The values that follow come from patent publication US7939621B2, “Oligocarbonate molecular transporters” (International Business Machines Corporation, priority 2009, dated 2011).

pEC50: −log10 of the molar value.

In test [1] the test system is Jurkat cells. Nature of the test: MTT toxicity assay. It counts as cell-based. Conditions: Homo sapiens, 24 h with compound at 37° C., then 24 h fresh media. The protocol:
Jurkat cells grown in 10% FBS in RPMI media 1640 (+ glutamine) were plated at 5-10×10^4 cells/mL on a 96-well microtiter plate in the same media. In a second 96-well plate, compound was serially diluted in triplicate over 20 wells in columns 2-11 and rows 1-3 and 5-7; typical dilutions spanned the concentration range of 400 μM to 20 nM. Columns 1 and 12 contained no cells and no compound, respectively. Rows 4 and 8 contained a serial dilution of colchicine as internal control; colchicine concentrations were generally much lower than compound concentrations in order to obtain an EC50 (half-maximal effective concentration).
Compounds were added to the plate containing cells and the cells were incubated at 37° C. for 24 h, at which point the plate was centrifuged, compound removed, and the cells resuspended in fresh media. […] Cells were incubated with MTT for 3 hours at 37° C., 150 μL solubilizing solution (10% triton X-100, 90% 0.1N HCl in isopropanol) was added to each well, and colorimetry data obtained on a plate reader.
Numerical data from plate reader was standardized using values from columns 1 and 12 and curve fitting was performed using Graph Pad Prism software to obtain an EC50 for each compound.

Test [2] has as its system Jurkat cells. Nature of the test: Cellular uptake assay by flow cytometry. Format: cell-based. As to conditions: 5, 12.5, 25 μM, pH 7.2 PBS, 5 min, 23° C. The protocol:
Dansyl-tagged oligomers and octaarginine control were brought up in pH 7.2 PBS buffer at 5 μM, 12.5 μM, and 25 μM concentrations. […] Cells were plated on a microtiter plate at 3.0×10^6 cells/mL with 200 μL/well. The plate was centrifuged (1300 rpm for 3 min), media removed, and cells resuspended in PBS buffer twice.
Compounds 6(a-c) and the r8 control at varying concentrations were incubated with the cells for 5 minutes at 23° C. The microtiter plates were centrifuged and the cells were isolated, washed with PBS and resuspended in PBS containing propidium iodide (3 μg/mL, 0.01%). The cells were analyzed using a fluorescent flow cytometer (Vantoo, Stanford University) equipped with a UV laser for excitation of the dansyl fluorophore, and cells stained with propidium iodide were excluded from the analysis. The data presented are the mean fluorescent signals for the 20,000 cells analyzed.
(In flow cytometry, cells or beads pass a laser one at a time.)

What is called pEC50 is the EC50 on a negative log10 scale, so that one unit is a factor of ten. With `CN(C)c1cccc2c(S(=O)(=O)NCCO)cccc12` [Compound 4, 5-(dimethylamino)-N-(2-hydroxyethyl)naphthalene-1-sulfonamide, reference compound], in test [1], the pEC50 was 3.51. Further, in test [2], the “Cellular uptake into Jurkat cells” value is on record as “does not enter Jurkat cells”.
